From patent publication US12384769B2, “Heteroaryl-substituted aminoalkyl azole compounds as pesticides” (Elanco Animal Health GmbH, priority 2019, dated 2025) come the findings set out here.

For orientation: mortality means the share of the test organisms that died.

Holding throughout (type): in vivo
One assay deals with Ctenocephalides felis. The experiment in a line: Ctenocephalides felis oral test (CTECFE). The following applies: 48 h, 100 ppm in cattle blood, after 2 days. The method, then: Ctenocephalides felis—Oral Test (CTECFE)
(§1) Solvent: dimethyl sulfoxide
To produce a suitable preparation of active compound, 10 mg of active compound are dissolved in 0.5 ml solvent, and the concentrate is diluted with cattle blood to the desired concentration.
Approximately 20 adult unfed cat fleas (Ctenocephalides felis) are placed in flea chambers. The blood chamber, sealed with parafilm on the bottom, are filled with cattle blood supplied with compound solution and placed on the gauze covered top of the flea chamber, so that the fleas are able to suck the blood. The blood chamber is heated to 37° C. whereas the flea chamber is kept at room temperature.
After 2 days mortality in % is determined. 100% means all the fleas have been killed; 0% means none of the fleas have been killed.

Another assay has as its system Boophilus microplus. The experiment in a line: Boophilus microplus injection test (BOOPMI Injection). The following applies: Rhipicephalus microplus, 168 h, injection into adult engorged female ticks, egg deposition after 7 days, read-out: activity (efficacy, infertile eggs); for pest or weed control at 0.004 mg: 4 μg/animal; for pest or weed control at 0.02 mg: 20 μg/animal. The method, then:
Boophilus microplus—Injection Test (BOOPMI Injection)
as §1
To produce a suitable preparation of active compound, 10 mg of active compound are dissolved in 0.5 mL solvent, and the concentrate is diluted with solvent to the desired concentration.
Five adult engorged female ticks (Boophilus microplus) are injected with 1 μL compound solution into the abdomen. The ticks are transferred into replica plates and incubated in a climate chamber.
After 7 days egg deposition of fertile eggs is monitored. Eggs where fertility is not visible are stored in a climate chamber till hatching after about 42 days. An efficacy of 100% means all eggs are infertile; 0% means all eggs are fertile.

The subject of the next assay is Spodoptera frugiperda. The experiment in a line: Spodoptera frugiperda spray test. The following applies: in Zea mays, 168 h, read-out: activity (mortality). Here is the method: Spodoptera frugiperda—Spray Test
Solvent: 78.0 parts by weight acetone • 1.5 parts by weight dimethylformamide
(§2) Emulsifier: alkylarylpolyglycol ether
To produce a suitable preparation of active compound, 1 part by weight of active compound is mixed with the stated amount of solvents and is diluted with water, containing an emulsifier concentration of 1000 ppm, to the desired concentration. Further test concentrations are prepared by dilution with emulsifier containing water.
Maize (Zea mays) leaf sections are sprayed with a preparation of the active ingredient of the desired concentration. Once dry, the leaf sections are infested with fall armyworm larvae (Spodoptera frugiperda).
After 7 days mortality in % is determined. 100% means all caterpillars have been killed and 0% means none of the caterpillars have been killed.

For assay [1], the system named is Rhipicephalus microplus (strain Parkhurst, resistant against synthetic pyrethroids). The experiment in a line: Rhipicephalus microplus in-vitro contact test, larval cattle tick (BOOPMI Contact). Conditions: 5 μg/cm^2 (=500 g/ha), after 48 hours, read-out: activity (efficacy, larvae dead or moribund). Here is the method:
Rhipicephalus microplus—in-Vitro Contact Tests Larval Cattle Tick (Strain Parkhurst, Resistant Against Synthetic Pyrethroids) (BOOPMI Contact)
9 mg compound is solved in 1 ml acetone and diluted with acetone to the desired concentration. 250 μL of the test solution is filled in 25 ml glass test tubes and homogeneously distributed on the inner walls by rotation and tilting on a shaking device (2 h at 30 rpm). With a compound concentration of 900 ppm, an inner surface of 44.7 cm^2 and a homogeneous distribution, a dose of 5 μg/cm^2 is achieved.
After the solvent has evaporated, each test tube is filled with 20-50 cattle tick larvae (Rhipicephalus microplus), closed with a perforated lid and incubated in a horizontal position at 85% relative humidity and 27° C. in an incubator. After 48 hours efficacy is determined. The larvae are patted on the ground of the tubes and negative geotactic behaviour is recorded.
An efficacy of 100% means all larvae are dead or moribund; 0% means no larvae are dead or moribund.

The test system of another assay is Diabrotica balteata. Kind of assay: Diabrotica balteata spray test. Conditions: 168 h, wheat seeds, after 7 days, read-out: activity (efficacy, seedlings grown); for pest or weed control at 160 µg/disc, 500 g/ha: 500 g/ha (=160 μg/well). Here is the method: Diabrotica balteata—Spray Test
Solvent: 78.0 parts by weight of acetone • • 1.5 parts by weight of dimethylformamide
as §2
To produce a suitable preparation of active compound, 1 part by weight of active compound is mixed with the stated amount of solvent, and the concentrate is diluted with water, containing an emulsifier concentration of 1000 ppm, to the desired concentration. Further test concentrations are prepared by dilution with emulsifier containing water.
Soaked wheat seeds (Triticum aestivum) are placed in a multiple well plate filled with agar and some water and are incubated for 1 day to germinate (5 seeds per well). The germinated wheat seeds are sprayed with a test solution containing the desired concentration of the active ingredient. Afterwards each unit is infected with 10-20 larvae of the banded cucumber beetle (Diabrotica balteata).
After 7 days efficacy in % is determined. 100% means all the seedlings have grown up like in the untreated, uninfected control; 0% means none of the seedlings have grown.

`C[C@H](Nc1nc2cc(C(F)(F)F)cc(Cl)c2o1)c1ncnn1-c1nccs1` [Example I-050, 7-Chlor-N-{(1S)-1-[1-(1,3-thiazol-2-yl)-1H-1,2,4-triazol-5-yl]ethyl}-5-(trifluormethyl)-1,3-benzoxazol-2-amin] came in with a mortality at 100 ppm with Ctenocephalides felis of 90%. In addition, in the assay with Boophilus microplus, the pest or weed control at 0.004 mg was found to be 80% and the pest or weed control at 0.02 mg stood at 80%.

In the assay with Ctenocephalides felis, `Cc1nc([C@H](C)Nc2nc3cc(C(F)(F)F)cc(C(F)(F)F)c3o2)n(-c2ncccn2)n1` [Example I-012] returned a mortality at 100 ppm of 100%. Moreover, the mortality at 500 g/ha in the assay with Spodoptera frugiperda came out at 100%. Moreover, in the assay with Boophilus microplus, the pest or weed control at 0.004 mg turned out to be 100% and the pest or weed control at 0.02 mg was found to be 100%.

In turn, `C[C@H](Nc1nc2cc(C(F)(F)F)c(Cl)cc2o1)c1ncnn1-c1ccc(Cl)cn1` [Example I-033] yielded a mortality at 100 ppm in the assay with Ctenocephalides felis of 90%. Besides, in assay [1], the pest or weed control at 5 µg/cm2 was found to be 100%. Further, in the assay with Spodoptera frugiperda, the mortality at 500 g/ha came out at 100%.

Turning to `C[C@H](Nc1nc2cc(C(F)(F)F)cc(Cl)c2o1)c1ncnn1-c1cnc(C#N)cn1` [Example I-041, 5-{5-[(1S)-1-{[7-Chlor-5-(trifluormethyl)-1,3-benzoxazol-2-yl]amino}ethyl]-1H-1,2,4-triazol-1-yl}pyrazin-2-carbonitril], the pest or weed control at 100 g/ha with Diabrotica balteata worked out at 100%. In the assay with Ctenocephalides felis, this compound gave a mortality at 100 ppm of 90%. Moreover, in assay [1], the pest or weed control at 5 µg/cm2 was 80%.

With `C[C@H](Nc1nc2cc(Br)cc(Cl)c2o1)c1ncnn1-c1ncccn1` [Example I-010], in the assay on Diabrotica balteata, the pest or weed control at 100 g/ha was 80% and the pest or weed control at 160 µg/disc, 500 g/ha worked out at 100%. In the assay with Ctenocephalides felis, this compound showed a mortality at 100 ppm of 100%. The mortality at 500 g/ha in the assay with Spodoptera frugiperda is 100%. In addition, in the assay on Boophilus microplus, the pest or weed control at 0.02 mg stood at 100%.

As for `C[C@H](Nc1nc2cc(OC(F)(F)F)cc(Cl)c2o1)c1ncnn1-c1ncc(Br)cn1` [Example I-078, N-{(1S)-1-[1-(5-Brompyrimidin-2-yl)-1H-1,2,4-triazol-5-yl]ethyl}-7-chlor-5-(trifluormethoxy)-1,3-benzoxazol-2-amin], the pest or weed control at 100 g/ha in the assay with Diabrotica balteata came out at 100%. For the same compound, the mortality at 100 ppm in the assay on Ctenocephalides felis was determined as 100%.

Consider `C[C@H](Nc1nc2cc(C(F)(F)F)cc(Cl)c2o1)c1ncnn1-c1ncc(Br)cn1` [Example I-044, N-{(1S)-1-[1-(5-Brompyrimidin-2-yl)-1H-1,2,4-triazol-5-yl]ethyl}-7-chlor-5-(trifluormethyl)-1,3-benzoxazol-2-amin], for which the pest or weed control at 100 g/ha in the assay on Diabrotica balteata stood at 100%. The mortality at 100 ppm with Ctenocephalides felis was 100%. Moreover, the pest or weed control at 5 µg/cm2 in assay [1] is 100%. Besides, the mortality at 100 g/ha with Spodoptera frugiperda was found to be 100%. Besides, the pest or weed control at 0.004 mg in the assay on Boophilus microplus came out at 100%.

With `CSc1cc2oc(N[C@@H](C)c3ncnn3-c3ncccn3)nc2cc1Cl` [Example I-076, 5-Chlor-6-(methylsulfanyl)-N-{(1S)-1-[1-(pyrimidin-2-yl)-1H-1,2,4-triazol-5-yl]ethyl}-1,3-benzoxazol-2-amin], the mortality at 100 ppm in the assay on Ctenocephalides felis was 100%. Further, the pest or weed control at 5 µg/cm2 in assay [1] stood at 90%. Besides, in the assay with Boophilus microplus, the pest or weed control at 0.004 mg came to 100% and the pest or weed control at 0.02 mg came to 100%.

Regarding `C[C@H](Nc1nc2cc(C(F)(F)F)cc(C(F)(F)F)c2o1)c1ncnn1-c1ccc(C#N)cn1` [Example I-026], the pest or weed control at 160 µg/disc, 500 g/ha in the assay with Diabrotica balteata stood at 100%. Further, the mortality at 100 ppm in the assay with Ctenocephalides felis turned out to be 100%. Moreover, the pest or weed control at 5 µg/cm2 in assay [1] amounted to 100%. Besides, in the assay on Spodoptera frugiperda, the mortality at 100 g/ha was 100% and the mortality at 500 g/ha is 100%. Moreover, in the assay with Boophilus microplus, the pest or weed control at 0.004 mg turned out to be 100% and the pest or weed control at 0.02 mg was determined as 100%.

`C[C@H](Nc1nc2cc(C(F)(F)F)c(Cl)cc2o1)c1ncnn1-c1ncc(C2COC2)cn1` [Example I-056, 6-Chloro-N-[(1S)-1-{1-[5-(oxetan-3-yl)pyrimidin-2-yl]-1H-1,2,4-triazol-5-yl}ethyl]-5-(trifluoromethyl)-1,3-benzoxazol-2-amine]: the mortality at 100 ppm in the assay on Ctenocephalides felis amounted to 100%. Besides, the pest or weed control at 5 µg/cm2 in assay [1] was found to be 80%. Moreover, in the assay on Boophilus microplus, the pest or weed control at 0.004 mg is 80% and the pest or weed control at 0.02 mg came to 100%.

On to `Cc1nc([C@H](C)Nc2nc3cc(C(F)(F)F)cc(Br)c3o2)n(-c2ncccn2)n1` [Example I-053, 7-Bromo-N-{(1S)-1-[3-methyl-1-(pyrimidin-2-yl)-1H-1,2,4-triazol-5-yl]ethyl}-5-(trifluormethyl)-1,3-benzoxazol-2-amin], for which the pest or weed control at 160 µg/disc, 500 g/ha in the assay with Diabrotica balteata came to 100%. In the assay on Ctenocephalides felis, this compound yielded a mortality at 100 ppm of 100%. For the same compound, in the assay on Boophilus microplus, the pest or weed control at 0.004 mg amounted to 100% and the pest or weed control at 0.02 mg worked out at 100%.

As for `C[C@H](Nc1nc2cc(C(C)(C)C)cc(Cl)c2o1)c1ncnn1-c1ncccn1` [Example I-075, 5-tert-Butyl-7-chlor-N-{(1S)-1-[1-(pyrimidin-2-yl)-1H-1,2,4-triazol-5-yl]ethyl}-1,3-benzoxazol-2-amin], in the assay on Ctenocephalides felis, the mortality at 100 ppm is 80%. Moreover, in the assay on Boophilus microplus, the pest or weed control at 0.004 mg worked out at 100% and the pest or weed control at 0.02 mg was 100%.

Consider `CCSc1cc2oc(N[C@@H](C)c3ncnn3-c3ncccn3)nc2cc1Cl` [Example I-073, 5-Chor-6-(ethylsulfanoyl)-N-{(1S)-1-[1-(pyrimidin-2-yl)-1H-1,2,4-triazol-5-yl]ethyl}-1,3-benzoxazol-2-amin], for which the mortality at 100 ppm in the assay on Ctenocephalides felis amounted to 90%. Moreover, in assay [1], the pest or weed control at 5 µg/cm2 worked out at 100%. The pest or weed control at 0.02 mg in the assay on Boophilus microplus was 100%.

With `C[C@H](Nc1nc2c(C(F)(F)F)cc(Br)cn2n1)c1ncnn1-c1ncccn1` [Example I-095, 6-bromo-N-{(1S)-1-[1-(pyrimidin-2-yl)-1H-1,2,4-triazol-5-yl]ethyl}-8-(trifluoromethyl)[1,2,4]triazolo[1,5-a]pyridin-2-amine], the mortality at 100 ppm in the assay on Ctenocephalides felis was determined as 100%. Also, in assay [1], the pest or weed control at 5 µg/cm2 is 80%.

For `CC(Nc1nc2cc(C(F)(F)F)cc(Cl)c2o1)c1nc(C(F)(F)F)nn1-c1ncccn1` (racemic) [Example I-048, 7-Chlor-N-{(rac)-1-[1-(pyrimidin-2-yl)-3-(trifluormethyl)-1H-1,2,4-triazol-5-yl]ethyl}-5-(trifluormethyl)-1,3-benzoxazol-2-amin], the mortality at 100 ppm in the assay on Ctenocephalides felis came out at 100%.

Turning to `C[C@H](Nc1nc2cc(C(F)(F)F)cc(Cl)c2o1)c1ncnn1-c1ncc(Br)s1` [Example I-035, N-{(1S)-1-[1-(5-bromo-1,3-thiazol-2-yl)-1H-1,2,4-triazol-5-yl]ethyl}-7-chloro-5-(trifluoromethyl)-1,3-benzoxazol-2-amine], in the assay on Diabrotica balteata, the pest or weed control at 100 g/ha turned out to be 100%. This compound returned a mortality at 100 ppm in the assay on Ctenocephalides felis of 100%. Besides, the pest or weed control at 0.004 mg with Boophilus microplus is 80%.

The compound `C[C@H](Nc1nc2cc(Cl)c(SC3CC3)cc2o1)c1ncnn1-c1ncccn1` [Example I-072, 5-Chlor-6-(cyclopropylsulfanyl)-N-{(1S)-1-[1-(pyrimidin-2-yl)-1H-1,2,4-triazol-5-yl]ethyl}-1,3-benzoxazol-2-amin] showed a mortality at 100 ppm in the assay with Ctenocephalides felis of 100%. Moreover, the pest or weed control at 5 µg/cm2 in assay [1] came to 90%.
